In test [1] the test system is hippocampal slices. The conditions noted are these: cited from earlier work.
In test [2] the test system is hippocampal neurons. Put plainly: Effects of deoxy-galactose sugars on neuronal morphology (anti-tau immunostaining). It is filed as cell-based, rat. The conditions noted are these: for rescue of 2-dGal effects: 75 mM Gal for 2 days after 15 mM 2-dGal for 2 days. The method, then:
Hippocampal neurons were plated on poly-DL-ornithine-coated glass coverslips as described above. After one day in culture, the medium was replaced with fresh medium, and the small molecules (2-dGal, 3-Deoxy-D-Galactose (3-dGal), or D-Galactose (Gal)) were added. A dose-response experiment was initially performed to determine the minimum concentration of 2-dGal needed to elicit an effect. Neurons were treated with varying concentrations of 2-dGal (1, 5, 10, 15, or 30 mM in 25 μL PBS with 475 μL of supplemented Neurobasal medium) for 2 days before immunostaining with anti-tau antibodies as described above.
Cells were treated as above under 4 different conditions: (1) no treatment for 2 days, (2) incubation with 15 mM 2-dGal for 2 days, (3) incubation with 15 mM 2-dGal for 2 days followed by incubation with 75 mM Gal for 2 days, or (4) incubation with 15 mM 3-dGal for 2 days. After adding the small molecules, cultures were incubated at 37° C., 5% CO2, then washed once with PBS, and immunostained with anti-tau antibody as described above.

In test [3] the test system is E18 cortical neurons. The test can be described thus: Expression of synaptic proteins in cultured neurons (Western blotting). The conditions noted are these: 15 mM for 3 days, neurons 7 DIV. The test is classed as cell-based. As to the method:
FIG. 20. […] (A) E18 cortical neurons cultured for 7 DIV were treated with 15 mM of 2-dGal or 6-dGal for 3 days. Protein lysates were analyzed by Western blotting using antibodies selective for the indicated proteins. A significant reduction in the expression of synapsin Ib was observed, while other synapse-associated proteins were unaffected by the 2-dGal treatment. (B) Neurite retraction caused by 2-dGal is reduced in synapsin-deficient mice. Neurons from synapsin I-deficient or wild-type mice were cultured for 2 days, treated with 2-dGal for 3 days, and analyzed for mean neurite length.
To examine the effects of 2-dGal on synapsin fucosylation in neurons, neurons were cultured for 7 DIV to allow for adequate expression of synapsin and subsequently treated with 2-dGal or 6-dGal for comparison. Cells were lysed and immunoblotted as described above. […] The expression of other synaptic proteins, including NSF, the synaptic vesicle protein synaptotagmin, the presynaptic plasma membrane protein syntaxin, and the postsynaptic proteins PSD-95, the AMPA receptor GluR1 subunit and spinophilin, was unchanged by the 2-dGal treatment.
(In general: Immunoblotting shows a protein as a band on a membrane.)

Test [4] concerns synapsin I expressed in HeLa cells. Put plainly: Synapsin fucosylation and expression in synapsin I-transfected HeLa cells (immunoblotting). It is filed as cell-based. The conditions noted are these: deoxy sugar for 24 h. The method, then: (§1) FIG. 19. Inhibition of synapsin fucosylation using 2-dGal decreases the expression and half-life of synapsin I. (A) Effects of 2-dGal and 6-dGal on synapsin fucosylation (left panel) and synapsin expression (right panel) levels. Synapsin I-transfected HeLa cells were treated with the indicated amounts of the deoxy sugar for 24 h. Fucosylation and synapsin expression levels were measured by immunoblotting with antibody A46-B/B10 and an anti-synapsin antibody, respectively. […] Synapsin I-transfected HeLa cells were treated with 2-dGal or a vehicle control (PBS), pulse labeled with ^35S-L-cysteine and ^35S-L-methionine as described in Materials and Methods, and chased for the indicated times. ^35S-labeled synapsin levels were measured by autoradiography. (C) Inhibition of the calcium-activated protease calpain using a calpain inhibitor peptide or calpeptin protects synapsin from degradation. […] Synapsin I-transfected HeLa cells were treated with the indicated inhibitors or vehicle control (DMSO, PBS or MeOH) in the presence or absence of 2-dGal for 15 h. Following lysis, the cell extracts were analyzed for synapsin expression levels by immunoblotting.
The effects of 2-dGal on synapsin I expressed in HeLa cells were next investigated. Cell lysates containing equivalent amounts of transfected protein were resolved by SDS-PAGE, and the fucosylation and protein levels of synapsin were measured by immunoblotting, using methods described above.

Test [5] relates to binding of antibody A46-B/B10 to bovine synapsin I. The test can be described thus: Competition ELISA. The conditions noted are these: competitors 0.078-5 mM. The method, then: To gain insight into the structural determinants recognized by antibody A46-B/B10, competition enzyme-linked immunosorbent assay (ELISA) experiments were performed using a series of fucose analogs (FIG. 12 A, B). Purified bovine synapsin Ia/Ib (Ueda, T., et al., J. Biol. Chem., 252:5155-5163 (1977)) was a supplied by Drs. P. Greengard and A. Nairn (The Rockefeller University, New York, N.Y.). The protein was immobilized on a microtiter plate by incubation in 50 mM NaHCO3, pH 9.0 at 4° C. overnight. Antibody A46-B/B10 (0.02 mg/mL) and the competitors (0.078-5 mM) were incubated in TBST (50 mM Tris-HCl pH 7.4, 150 mM NaCl, 0.1% Tween-20) at 4° C. overnight and then transferred to the microtiter plate. The wells were washed with TBST and incubated with a goat anti-mouse secondary antibody conjugated to alkaline phosphatase (1:500) at rt for 1 h. The wells were washed with TBST and developed with p-nitrophenyl phosphate. Inhibition curves were generated using PRISM (GraphPAD Software, Inc.).
Synapsin Ia and Ib from bovine brain were immobilized on a microtiter plate, and binding of antibody A46-B/B10 to synapsin was assessed in the presence of varying concentrations of the competitors (see FIG. 12A for structures of the competitor molecules). […] (Haselhorst, T., et al., J. Am. Chem. Soc., 123:10705-10714 (2001))
On the technique in general: In an ELISA, binding on a coated surface is turned into a signal by an enzyme label.

Test [6] relates to synapsin I-transfected HeLa cells. Put plainly: Synapsin degradation with inhibitors of protein degradation with or without 2-dGal. The note with it: with 2-dGal, 15 h. The test is classed as cell-based. The method, then: as §1
To investigate the molecular mechanisms responsible for synapsin degradation, cells expressing synapsin were treated with various inhibitors of protein degradation in the presence or absence of 2-dGal. Specifically, the lysosomal inhibitors bafilomycin A1 and ammonium chloride, the proteasome inhibitor MG132, and two inhibitors of the calcium-dependent protease calpain, were used.

The subject of test [7] is hippocampal neurons. Put plainly: Binding of biotinylated probe to cultured hippocampal neurons (streptavidin-AlexaFluor 488 imaging). It is filed as cell-based, rat. The note with it: 3 mM, 10 μM PAO. The method, then:
Hippocampal neurons were cultured using a procedure modified from Goslin and Banker, in Culturing Nerve Cells, Banker, G., Goslin, K., Eds., pp. 251-281, MIT Press: Cambridge, Mass. 1991. Briefly, the hippocampi of embryonic day 18 (E18) rats were dissected and transferred to 4.5 mL of ice-cold Calcium and Magnesium Free-Hank's Balanced Salt Solution (CMF-HBSS). Trypsin (2.5%, no EDTA) was added to 5 mL, and the tissue was incubated for 15 min at 37° C. The trypsin solution was removed and the tissue sample washed three times with 5 mL of CMF-HBSS. Cells were then dissociated from the tissue in 1 mL of CMF-HBSS by passing through a P1000 pipet tip twenty times. The cells were counted, diluted into Minimal Eagle's Medium (MEM) plus 10% fetal bovine serum, and seeded on poly-DL-ornithine-coated glass coverslips (Carolina Biological) at a density of 75 cells/mm2 (100 μL/coverslip) for 30 min. After this time, 500 μL of supplemented Neurobasal medium (47.5 mL Neurobasal medium without Lglutamine; 0.5 mL L-glutamine (200 mM); 0.5 mL penicillin/streptomycin (10,000 U/mL); 0.5 mL antibiotic-antimycotic (100× stock), 1.0 mL B-27 serum-free supplement (50× stock); 50 μL of 0.5 M kynurenic acid in 1 N NaOH) was added to each coverslip. The use of kynurenic acid to block glutamate receptor ion channels and enhance neuronal health and survival is standard protocol for neuronal cultures. Id. The cultures were maintained in 5% CO2 at 37° C. in supplemental Neurobasal medium.
After 23 days in culture, the medium was replaced, and neurons were treated with the endocytosis inhibitor phenylarsine oxide (PAO; 4 μL in DMSO, final concentration 10 μM) (Nouel, D., et al., J. Neurosci. 17:1795-1803 (1997)) and either compound III (24 μL in PBS, final concentration 3 mM), or biotin (24 μL in PBS, final concentration 3 mM), in supplemented Neurobasal medium (400 μL final volume) for 1 h at 37° C., 5% CO2. After 1 h, neurons were rinsed 2 times with PBS, fixed in 4% paraformaldehyde for 20 min at rt, washed 2 times with PBS, permeabilized in 0.3% Triton X-100 for 5 min at rt, and washed 2 times with PBS. Non-specific binding was blocked with 3% BSA for 1 h at rt and then rinsed one time with PBS. Compound III was detected with streptavidin conjugated to AlexaFluor 488 (1:200, Molecular Probes). Dye-conjugated streptavidin was added in 3% BSA for 1 h at 37° C. and the excess reagent washed off 5 times with PBS. Coverslips were then mounted onto slides with Vectashield, sealed, and imaged using confocal laser microscopy. Results can be seen in FIG. 2.
De-lipidation was performed on some samples following the protocol of Yavin, E. et al., J. Neurosci. Res. 9:229-237 (1983). Briefly, after 23 days in culture, cells were rinsed once with PBS then exposed to MeOH/CHCl3 (½ by vol.) for 15 min at −80° C. This procedure fixes the cells to the coverslip and extracts cellular lipids. After removing the MeOH/CHCl3 mixture, coverslips were dried at rt then incubated with 3% BSA for 1 hr at rt. After one rinse with PBS, neurons were treated with PAO and the procedure described above was followed.

Where a SMILES comes first, the peptide text is derived from it. The star is where a group is joined. Cbz = O=C(OCc1ccccc1)*

Take 2′fucosyllactose: the “effect on LTP” value in test [1] is on record as “enhance LTP”.

For the molecule `O=C[C@H](O)C[C@@H](O)[C@H](O)CO` [Compound 3-dGal, 3-Deoxy-D-Galactose], the “effect on neurite outgrowth” value in test [2] (15 mM for 2 days) was “no impact on neurite outgrowth”.

For the molecule `C[C@@H](O)[C@H](O)[C@H](O)[C@@H](O)C=O` [Compound 6-dGal, 6-deoxy-D-galactose], the “expression of synapsin I” value in test [3] was “no effect”. Besides, in test [4], the “fucosylation level of synapsin” value is “no effect” and the “level of synapsin protein” value is “no effect”.

In the case of `O=C[C@H](O)[C@@H](O)[C@H](O)[C@H](O)CO` [D-glucose], in test [5], the “inhibition of antibody binding to synapsin Ia and Ib” value (shortened to “inhibition of antibody binding”) is recorded as “did not compete”.

As for `CCO[C@@H]1O[C@H](CO)[C@H](O)[C@H](O)[C@H]1O[C@@H]1O[C@@H](C)[C@@H](O)[C@@H](O)[C@@H]1O` [Fucα(1-2)Gal-β-OEt, Ethyl O-(α-L-fucopyranosyl)-(1-2)-β-D-galactopyranoside], the “inhibition of antibody binding” value in test [5] is given as “selectively inhibited”.

On to `O=C[C@H](O)[C@@H](O)[C@@H](O)[C@H](O)CO` [Gal, D-Galactose], for which the “rescue of 2-dGal effects” value in test [2] is on record as “rescued”; in test [2] (listed as D-galactose), “regeneration of the neuronal processes”. The “inhibition of antibody binding” value in test [5] is on record as “did not compete”.

Take `CCOC1OC(C)C(O)C(O)C1O` [L-Fuc-α-OEt, ethyl α/β-L-fucopyranoside]: in test [5], the “IC50 (compared in words)” value was “comparable to that of the disaccharide Fucα(1-2)Gal-β-OEt”; the “inhibition of antibody binding” value is given as “effective at inhibiting antibody binding”.

With `C[C@H](O)[C@@H](O)[C@@H](O)[C@H](O)C=O` [L-fucose], the “effect on LTP” value in test [1] was “enhance LTP”. Also, in test [5], the “IC50 (compared in words)” value is reported as “comparable to that of the disaccharide Fucα(1-2)Gal-β-OEt”; the “inhibition of antibody binding” value was “effective at inhibiting antibody binding”.

For the molecule `CC(C)C[C@@H](C=O)NC(=O)[C@H](CC(C)C)NC(=O)[C@H](CC(C)C)NC(=O)OCc1ccccc1` [MG132] (Cbz-Leu-Leu-Leu-aldehyde), the “rescue of synapsin from 2-dGal-induced degradation” value (shortened to “rescue of synapsin”) in test [6] was “no effect on synapsin degradation”.

Regarding `CC(=O)N[C@H]1C(O)O[C@H](CO)[C@@H](O)[C@@H]1O` (stereo partly drawn) [N-acetyl-D-glucosamine], in test [5], the “inhibition of antibody binding” value is listed as “did not compete”.

As to `Cl.N` [ammonium chloride], in test [6], the “rescue of synapsin” value was “no effect on synapsin degradation”.

In the case of `CO/C1=C\C(C)=C\[C@@H](C)[C@@H](O)[C@@H](C)C/C(C)=C/C=C/[C@H](OC)[C@@H]([C@@H](C)[C@@H](O)[C@H](C)[C@@]2(O)C[C@@H](O)[C@H](C)[C@@H](C(C)C)O2)OC1=O` [bafilomycin A1], the “rescue of synapsin” value in test [6] is “no effect on synapsin degradation”.

Take `O=C(O)CCCC[C@@H]1SC[C@@H]2NC(=O)N[C@@H]21` [biotin]: in test [7] (neurons de-lipidated with MeOH/CHCl3), the “labeling of neurons after de-lipidation” value is recorded as “minor binding of the biotin alone to the cell body but not the neurites”. Also, the “binding to hippocampal neurons” value in test [7] (1 h, E18 neurons 23 days in vitro) is “this binding is not between the biotin moieties and the neuron”.

Consider `CCCC[C@@H](C=O)NC(=O)[C@H](CC(C)C)NC(=O)OCc1ccccc1` [calpeptin], for which the “rescue of synapsin” value in test [6] is “rescued the effects of 2-dGal”.
